# Measurements from patent US20170266133A1 (priority 2014, published 2017).
# Experiments:
# [1] = system: healthy recreational stimulant users; experiment: single-dose crossover abuse potential study in recreational stimulant users; assay type: in vivo, human
# Excerpt: A single-dose, randomized, double-blind, double-dummy, placebo- and active-controlled crossover study with 6 treatment visits per subject was undertaken. […] Subjects participated in a medical screening visit (Visit 1), one 4-day inpatient qualification phase (Visit 2), a treatment phase (Visits 3 to 8) consisting of six 5-day inpatient treatment visits, and a safety follow-up visit (Visit 9). Within 21 days of the screening visit, subjects were enrolled and attended a qualification phase in which they received either 60 mg methylphenidate or matching placebo in a randomized double-blind crossover manner. Dosing times were separated by approximately 24 hours to ensure that subjects could discriminate and show positive effects of the positive control.
# Healthy female and male subjects aged 18 to 55 years (inclusive), who were recreational central nervous system (CNS) stimulant users with cocaine experience and who had passed the methylphenidate qualification phase, were randomized into the treatment.
# Drug administration occurred on Day 1 of each treatment visit followed by pharmacodynamic (PD), pharmacokinetic (PK), and safety assessments conducted for up to 72 hours post-dose. […] Subjects were randomized to one of 6 treatment sequences according to a 6×6 William square design. The capsules received at each treatment visit (Visits 3 to 8) were identical. Serial pharmacodynamic and pharmacokinetic evaluations were taken at each treatment visit. pharmacokinetic analysis was performed for dasotraline. Safety monitoring included regular assessments of vital signs, clinical laboratory tests, and adverse events (AEs), as well as continuous telemetry monitoring for at least 12 hours post-dose. Treatment visits were separated by a washout interval of at least 21 days (from the day of dosing). Subjects returned for the safety follow-up visit within approximately 14 days following the end of the last treatment visit.
# [2] = system: norepinephrine transporters; experiment: circulating DHPG levels; assay type: in vivo, human; conditions: 8 mg/d
# NE transporters (NET) = NE transporters (NET) (Homo sapiens, UniProt P23975); experiment: norepinephrine uptake inhibition; assay type: biochemical
# Chain of NE transporters (NET) (P23975 whole entry): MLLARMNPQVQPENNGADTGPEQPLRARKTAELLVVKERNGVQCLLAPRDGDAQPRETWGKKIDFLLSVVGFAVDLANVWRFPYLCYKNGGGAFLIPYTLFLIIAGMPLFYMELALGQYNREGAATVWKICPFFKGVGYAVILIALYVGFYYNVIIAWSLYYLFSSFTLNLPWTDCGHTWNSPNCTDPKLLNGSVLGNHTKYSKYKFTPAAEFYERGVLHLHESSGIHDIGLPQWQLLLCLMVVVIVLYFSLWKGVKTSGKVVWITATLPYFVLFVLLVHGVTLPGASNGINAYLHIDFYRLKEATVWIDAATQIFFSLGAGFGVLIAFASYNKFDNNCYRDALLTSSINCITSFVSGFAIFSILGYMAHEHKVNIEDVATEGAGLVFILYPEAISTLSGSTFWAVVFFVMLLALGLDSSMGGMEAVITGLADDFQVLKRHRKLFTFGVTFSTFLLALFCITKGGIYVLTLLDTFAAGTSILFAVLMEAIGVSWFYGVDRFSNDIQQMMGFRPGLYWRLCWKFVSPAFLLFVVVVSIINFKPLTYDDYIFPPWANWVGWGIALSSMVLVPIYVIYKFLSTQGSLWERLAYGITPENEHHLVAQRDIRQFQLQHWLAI
# Excerpt: (§1) Dasotraline [(1R,4S)-4-(3,4-Dichlorophenyl)-1,2,3,4-tetrahydronaphthalen-1-amine] is a novel compound with DNRI pharmacology.
# adults with ADHD [3] = assay type: in vivo, human
# Description: (§2) The study consisted of 3 periods including Screening, Treatment, and Washout/Follow-up, as described below. Efficacy was evaluated using the ADHD Rating Scale Version IV (ADHD RS-IV) with adult prompts. Effects on cognition were evaluated using the […]. Safety and tolerability were monitored throughout the study by collection of physical examinations, 12-lead electrocardiograms (ECG), vital signs, adverse events (AEs), hematology, blood chemistry, urinalysis, Insomnia Severity Index (ISI), and Columbia-Suicide Severity Rating Scale (C-SSRS).
# (§3) Subjects self-administered the study drug at home on Days 1 through 28, at approximately the same time each night. After Day 1 subjects returned to the clinic on Days 8, 15, 22, and 29. Beginning at Day 1 and at every visit during the treatment period, the ADHD RS-IV, Wender-Reimherr Adult Attention Deficit Disorder Scale (WRAADDS), and clinical global impression—severity (CGI-S) were completed. The clinical data repository system was administered at Baseline, and Days 15 and 29.
# (§4) At Days 36 and 43, subjects returned to the clinic and the ADHD RS-IV, WRAADDS, and CGI-S were completed. The clinical data repository system was completed on Day 43.
# clinical [4] = conditions: human, in vivo, 8 mg
# [5] = target: human DA transporters (DAT) (Homo sapiens, UniProt Q01959); experiment: dopamine uptake inhibition; assay type: biochemical
# Chain of human DA transporters (DAT) (Q01959 whole entry): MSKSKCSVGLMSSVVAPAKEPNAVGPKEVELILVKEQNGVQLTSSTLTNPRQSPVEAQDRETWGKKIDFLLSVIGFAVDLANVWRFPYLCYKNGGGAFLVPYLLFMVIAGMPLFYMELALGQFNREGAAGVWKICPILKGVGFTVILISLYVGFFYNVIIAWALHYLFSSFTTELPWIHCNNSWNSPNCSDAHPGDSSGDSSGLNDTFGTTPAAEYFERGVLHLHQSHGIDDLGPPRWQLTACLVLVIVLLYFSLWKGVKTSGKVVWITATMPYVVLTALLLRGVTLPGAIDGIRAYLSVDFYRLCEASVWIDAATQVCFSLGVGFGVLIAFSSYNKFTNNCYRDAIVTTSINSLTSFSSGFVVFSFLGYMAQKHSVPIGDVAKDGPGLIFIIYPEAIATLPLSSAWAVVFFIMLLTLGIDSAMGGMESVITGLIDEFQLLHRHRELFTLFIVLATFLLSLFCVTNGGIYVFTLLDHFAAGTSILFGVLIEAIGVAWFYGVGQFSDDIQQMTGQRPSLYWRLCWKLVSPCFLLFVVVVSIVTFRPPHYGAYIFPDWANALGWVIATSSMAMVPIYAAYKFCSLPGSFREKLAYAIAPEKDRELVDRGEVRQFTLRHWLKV
# Excerpt: as §1
# clinical [6] = assay type: in vivo, human; conditions: for steady-state concentration: predicted for longer-term administration from weeks 1-4
# Description: as §2, §3, §4
# From the measurements of serum concentration at 1, 2, 3, and 4 weeks, one can graph a predicted serum concentration on longer-term administration.
# adults with ADHD [7] = experiment: Phase 2 study in adults with ADHD, efficacy (ADHD RS-IV, CGI-S, WRAADDS, cognition); assay type: in vivo, human
# Description: as §2, §3, §4
# clinical [8] = assay type: in vivo, human
# Description: Upon oral administration, methylphenidate is rapidly and completely absorbed from the gastrointestinal tract. Peak concentrations occur 1 to 2 hours after dose administration. […] When methylphenidate and cocaine are administered intravenously, their pharmacokinetics are quite similar—the percentage of each drug taken up by the brain and their rates of uptake are parallel, although the clearance from the brain of cocaine is faster than that of methylphenidate. The receptor-binding affinities for cocaine and methylphenidate are similar at the dopamine transporter in the basal ganglia and the striatum. […] Thus it appears that abuse may be related to a rapid surge in dopamine levels in the striatum. […] The consequence of the slow increase in dopamine is the absence of a “high”, and the consequence of the long T1/2 is that, following daily dosing, serum concentration gradually increases to a steady state over the course of about 7 days.
# DAT sites = target: T1, DAT sites (Homo sapiens, UniProt Q01959); experiment: DAT site occupancy versus serum concentration (other studies, not shown); conditions: in vivo
# T1 construct: from tissue; host or cells: in vivo occupancy
# T1 sequence (Q01959 whole entry): as above
# [9] = cited from earlier work
# [10] = 8 mg once daily, all assessment weeks
# [11] = methylphenidate 40 mg and 80 mg, single dose
compound,measurement,setting,value
"N[C@@H]1CC[C@@H](c2ccc(Cl)c(Cl)c2)c2ccccc21 [dasotraline, (1R,4S)-4-(3,4-Dichlorophenyl)-1,2,3,4-tetrahydronaphthalen-1-amine]",differences from placebo on pharmacodynamic endpoints,[1]; 16 mg single dose,very few statistically significant differences from placebo
same,effects on most pharmacodynamic endpoints versus placebo,"[1]; dasotraline 8, 16 and 36 mg, single dose",not significantly different from those of placebo
same,circulating DHPG levels,[2],decreased circulating DHPG levels
same,IC50,NE transporters (NET),4 nM
same,"drug misuse or diversion, Abuse Potential Monitoring Plan",adults with ADHD [3]; 8 mg once daily,No evidence of drug misuse or diversion
same,Treatment-emergent adverse events (TEAEs),"adults with ADHD [3]; 8 mg once daily, 4 weeks",higher than the percentage of TEAEs in the placebo group
same,anxiety leading to discontinuation,"adults with ADHD [3]; 8 mg once daily, 4 weeks",1.8%
same,incidence of adverse events rated as severe,"adults with ADHD [3]; 8 mg once daily, 4 weeks",13.5%
same,insomnia leading to discontinuation,"adults with ADHD [3]; 8 mg once daily, 4 weeks",10.8%
same,panic attack leading to discontinuation,"adults with ADHD [3]; 8 mg once daily, 4 weeks",2.7%
same,"Drug Effects Questionnaire mean item scores, distance from the 0-point",adults with ADHD [3]; [10],≤ 5 mm
same,"Drug Effects Questionnaire, drug liking",adults with ADHD [3]; [10],No evidence of drug liking
same,withdrawal upon discontinuation of study drug,adults with ADHD [3]; after 4 weeks of 8 mg once daily,No signs or symptoms of withdrawal
same,Cmax,clinical [4],~0.003 µg/mL
same,Tmax,clinical [4],> 6 h
same,IC50,[5],3 nM
same,steady-state concentration,clinical [6]; dose of 6 mg,about 12 ng/mL
same,steady-state concentration,clinical [6]; dose of 8 mg,about 17 ng/mL
same,concentration at 4 weeks,"clinical [6]; human, in vivo, 8 mg once daily, by week four, read-out: serum concentration plateau",0.015 to 0.02 µg/mL
same,serum concentration in the majority of patients,clinical [6]; oral dosage form containing 6-8 mg,0.01 to 0.018 µg/mL
same,"computerized cognitive assessment battery: attention, working memory, episodic memory",adults with ADHD [7]; 8 mg once daily,no significant main effects
same,Wender-Reimherr ADD total score,adults with ADHD [7]; 8 mg once daily vs placebo,did not improve enough to achieve statistical significance
same,"ADHD RS-IV total score, LS mean change from baseline versus placebo","adults with ADHD [7]; 8 mg once daily, Week 2",trend to separation from placebo
same,"Wender-Reimherr subscore, attention difficulties component and disorganization component","adults with ADHD [7]; 8 mg once daily, week 4, vs placebo",statistically significant improvement
same,time to steady state serum concentration,clinical [8]; daily dosing,about 7 days
same,Tmax,"clinical [8]; human, in vivo, po",10 to 12 h
same,half-life,"clinical [8]; human, in vivo, read-out: serum half-life (t1/2)",47 to 77 h
same,serum concentration at 50% DAT site occupancy,DAT sites,5 to 6 ng/mL
COC(=O)C(c1ccccc1)C1CCCCN1 (stereo not shown) [methylphenidate],Drug Similarity Visual Analog Scale,[1]; [11],strongly identified as a stimulant
same,overall liking,[1]; [11],“liked” by subjects overall
same,"pharmacodynamic endpoints including Drug Liking Visual Analog Scale, versus placebo",[1]; [11],significant differences compared to placebo
same,secondary stimulant measures,[1]; [11],strong stimulant effects
same,pharmacokinetic half-life,[9]; in vivo,approximately 2 hours
same,time to peak concentrations,[9]; oral administration,1 to 2 h
